Series [1] concerns the target T1, HTN-CK2α (Homo sapiens, UniProt P68400). The experiment in a line: Immunoblot of HTN-CK2α O-GlcNAcylation in HEK293T cells co-expressing fOGT. The following applies: co-treated with OGTAC-1. Type of series: cell-based. An excerpt: Ck2α is a well-studied OGT substrate.^17,25 Its Ser347 is conservatively O-GlcNAcylated and this modification was reported to affect its kinase activity.^16,17 We first co-expressed HTN-Ck2α and fOGT in HEK293T cells at different ratio and found the basal O-GlcNAcylation level of HTN-Ck2α was higher than what we detected in the case of HTN-BRD4. Therefore, a lower ratio of fOGT expression (1:100) was selected for the assessment of OGTAC potency (FIG. 9). […] The induction of specific O-GlcNAcylation on HTN-Ck2α was further confirmed by mass-shift assay. […] To validate the direct binding to both fOGT and HTN-Ck2α is critical, we exploited AP 1867 and rhodamine ligand, which bind to fOGT and HTN-Ck2α respectively, to co-treat with OGTAC-1.
During immunoblotting study, we noticed that even for whole cell lysate (WCL), RL2 antibody band (green) and HTN-CK2α protein band (red) are perfectly overlapped and clearly distinguishable from other bands on blot (FIG. 6B). We assessed the OGTAC treatment effects by quantifying the RL2 signal that is overlapping with HTN-Ck2α in WCL, and found they are corresponding with the results achieved by IP-WB method (FIG. 6C). Therefore, we quantify the intensity of RL2 band that overlapping with HTN-CK2α level instead of IP CK2α in later study.
For each IP reaction, 2.2×10^6 HEK293T cells were seed in 10 cm dish. After cells attached, transfection reagents and plasmids were prepared and added in DMEM. After 24 h transfection, media were replaced by fresh warm complete media with DMSO or probes. For washout study, after 4 h treatment, media with DMSO or OGTAC-4 (500 nM) were replaced by fresh media with DMSO or AP1867 (50 μM) for further incubation. After certain time of OGTACs treatment, cells were collected by cold PBS and lysed by 200 μL complete IP lysis buffer. The lysate was incubated on ice for 20 min, spun down at 14,000 RPM at 4° C. for 15 mins, and the supernatant were collected for bicinchoninic acid (BCA) assay and normalized to a final 2 mg/mL. For input, 20 μL of diluted sample was reacted with equal volume of 10 μM TMR ligand in IP lysis buffer and rotate gently at RT for 15 mins. The remaining samples were subjected to protein A/G magnetic beads (MedChemExpress, HY-K0202), which pre-binding with protein target protein antibody. For samples for LC-MS/MS or HTN-BRD4 mutant constructs. Halo-Trap Magnetic Agarose (Proteintech, otma) was used to incubate with protein lysates. After gentle rotation at 4° C. for at least 16 h, the beads were washed with IP lysis buffer and boiled in 40 μL 2×SDS-loading buffer (Biorad #1610747) for 5 mins to elute proteins from beads. Eluted samples were directly subjected into WB analysis. To get stronger signal of RL2, we used anti-mouse-HRP (Cell signaling, #7076) as secondary antibody for RL2 and anti-rabbit-DyLight 488 (Invitrogen, #35552) as secondary antibody for total target proteins.
In general, cells (from 12 well plate) were lysed by 80 μl RIPA lysis buffer (Thermo Scientic 89901) supplemented with 20 μM OGA inhibitor (Thaimet G, Bidepharm BD571819) and 100X protease inhibitor (MedChemExpress, HY-K0010), incubated on ice for 20 min, spun down at 14,000 RPM at 4° C. for 15 mins, and the supernatant were collected for bicinchoninic acid (BCA) assay and normalizedeto a final 2 mg/mL concentration. About 30 μg of protein samples were loaded for sodium dodecyl sulfatepolyacrylamide gel electrophoresis (SDS-PADE) and blotted with indicated antibodies.
(In general: In western blotting, separated proteins are transferred to a membrane and probed.)
Target sequence in this assay (P68400 with tags, fused parts or gaps): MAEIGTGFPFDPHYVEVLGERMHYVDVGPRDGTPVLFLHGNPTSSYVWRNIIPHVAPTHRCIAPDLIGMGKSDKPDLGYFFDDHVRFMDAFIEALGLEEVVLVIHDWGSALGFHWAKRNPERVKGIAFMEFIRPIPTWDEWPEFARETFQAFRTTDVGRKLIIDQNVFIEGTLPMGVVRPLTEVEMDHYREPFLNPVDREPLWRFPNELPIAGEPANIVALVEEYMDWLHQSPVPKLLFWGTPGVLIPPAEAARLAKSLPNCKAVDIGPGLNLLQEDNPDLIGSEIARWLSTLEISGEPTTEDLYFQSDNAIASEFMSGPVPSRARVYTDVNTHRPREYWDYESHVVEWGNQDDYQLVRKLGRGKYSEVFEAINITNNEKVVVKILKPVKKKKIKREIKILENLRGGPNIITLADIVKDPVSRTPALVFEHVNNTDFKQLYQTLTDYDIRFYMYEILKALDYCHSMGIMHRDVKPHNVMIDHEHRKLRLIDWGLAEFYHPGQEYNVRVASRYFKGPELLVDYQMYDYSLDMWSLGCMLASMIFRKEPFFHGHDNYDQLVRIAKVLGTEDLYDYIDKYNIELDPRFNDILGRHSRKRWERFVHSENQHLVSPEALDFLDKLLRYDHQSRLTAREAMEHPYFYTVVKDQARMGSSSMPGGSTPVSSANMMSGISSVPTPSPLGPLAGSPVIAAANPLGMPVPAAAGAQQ
Target sequence in this assay (P62942+O15294 fused P62942:F37V partner): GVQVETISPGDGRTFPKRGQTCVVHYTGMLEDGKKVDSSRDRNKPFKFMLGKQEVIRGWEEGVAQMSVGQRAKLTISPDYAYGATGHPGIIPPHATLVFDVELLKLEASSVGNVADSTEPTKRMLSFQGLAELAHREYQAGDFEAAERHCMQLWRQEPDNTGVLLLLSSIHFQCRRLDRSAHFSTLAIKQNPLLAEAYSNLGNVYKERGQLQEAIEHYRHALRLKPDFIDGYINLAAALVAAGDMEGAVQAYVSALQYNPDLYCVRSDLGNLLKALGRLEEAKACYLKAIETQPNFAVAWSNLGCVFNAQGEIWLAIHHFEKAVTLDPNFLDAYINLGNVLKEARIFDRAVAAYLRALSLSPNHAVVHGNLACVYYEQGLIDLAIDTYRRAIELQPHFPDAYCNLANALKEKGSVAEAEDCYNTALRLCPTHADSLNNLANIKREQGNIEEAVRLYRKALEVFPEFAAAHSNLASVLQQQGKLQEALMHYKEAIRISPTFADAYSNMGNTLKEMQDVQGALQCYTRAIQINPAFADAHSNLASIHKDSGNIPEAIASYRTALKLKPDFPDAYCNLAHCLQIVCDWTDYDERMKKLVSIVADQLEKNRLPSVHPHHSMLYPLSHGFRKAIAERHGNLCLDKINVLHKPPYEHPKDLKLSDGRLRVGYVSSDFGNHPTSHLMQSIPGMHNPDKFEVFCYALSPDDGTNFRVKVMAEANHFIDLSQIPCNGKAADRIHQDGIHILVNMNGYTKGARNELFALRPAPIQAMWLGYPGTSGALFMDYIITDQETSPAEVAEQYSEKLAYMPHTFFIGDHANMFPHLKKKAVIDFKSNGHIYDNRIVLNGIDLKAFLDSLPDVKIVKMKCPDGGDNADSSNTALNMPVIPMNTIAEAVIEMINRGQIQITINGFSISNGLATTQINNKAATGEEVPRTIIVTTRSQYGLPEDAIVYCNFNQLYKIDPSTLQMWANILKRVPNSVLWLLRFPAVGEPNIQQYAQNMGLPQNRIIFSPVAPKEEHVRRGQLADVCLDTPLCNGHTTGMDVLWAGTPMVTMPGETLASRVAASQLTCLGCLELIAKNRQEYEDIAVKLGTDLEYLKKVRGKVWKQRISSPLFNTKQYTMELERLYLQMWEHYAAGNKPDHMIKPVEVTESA

Series [2] deals with T2, HTN-BRD4 and 0tfOGT (Homo sapiens, UniProt O60885+P62942, F37V).
T2 construct: HaloTag fragment; 0TPR(463-1046)-; expressed in transfected cells; host or cells: HEK293T
T2 sequence (P62942 whole entry F37V, stated change not applied, other chains not shown, the tested form may be a part): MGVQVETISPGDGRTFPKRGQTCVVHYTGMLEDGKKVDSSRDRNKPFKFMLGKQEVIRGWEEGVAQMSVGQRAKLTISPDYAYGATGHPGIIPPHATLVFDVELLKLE
Description: Washout / reversibility study, HTN-BRD4:0tfOGT. In kind it is cell-based. As to conditions: AP1867 50 μM after OGTAC-4 500 nM 4 h. The protocol: FIGS. 7A-7E: Specificity and reversibility of OGTAC strategy. […] (B), Constructs of fOGT with 13.5 (rounded to 13) TPR and 0TPR-fOGT (0tfOGT). (C). […] (D), Dose-dependent O-GlcNAcylation profile of HTN-BRD4 by OGTAC-4 treatment. HEK293T cells expressing HTN-BRD4:0tfOGT=1:0.05 were treated with an increasing concentration of OGTAC-4 for 4 h. Then, the O-GlcNAcylation level of HTN-BRD4 was assessed by immunoblot after IP using BRD4 antibody. All quantifications are shown as mean±s.e.m. of n=3 biologically independent experiments. (E), Reversible effect of OGTAC-4 on HTN-BRD4 can be achieved by addition of AP1867. HEK293T cells expressing HTN-BRD4:0tfOGT=1:0.05 were pretreated with OGTAC-4 (500 nM) or DMSO for 4 h, and culturing media were replaced by fresh media with DMSO or AP1867 (50 μM) for the indicated time. The quantifications in right panel were conducted by the normalizing the fold-change (OGTAC-4/DMSO) for each post-washout time point to the value of 4 h pre-treatment. All quantifications are shown as mean±s.e.m. of 3 independent biological repeats. Statistical significance was calculated with ordinary one-way ANOVA comparing samples with different transfection conditions or OGTAC-treatment. ns, p≥0.05; *p<0.05; **p<0.01; ***p<0.001; ****p<0.0001.
To assess the potential application of our OGTAC strategy in downstream biological studies, we investigated the reversibility of OGTACs. […] Additionally. the O-GlcNAc level of BRD4 returned to baseline after 6 hours of AP1867 treatment, confirming the reversibility of the induction effect (FIG. 7E).
For each IP reaction, 2.2×10^6 HEK293T cells were seed in 10 cm dish. After cells attached, transfection reagents and plasmids were prepared and added in DMEM. After 24 h transfection, media were replaced by fresh warm complete media with DMSO or probes. For washout study, after 4 h treatment, media with DMSO or OGTAC-4 (500 nM) were replaced by fresh media with DMSO or AP1867 (50 μM) for further incubation. After certain time of OGTACs treatment, cells were collected by cold PBS and lysed by 200 μL complete IP lysis buffer. […]

Series [3] has as its target FKBP12^F36V (Homo sapiens, UniProt P62942, F37V). As to conditions: cited from earlier work.
Series [4] deals with T1, HTN-CK2α. The experiment in a line: O-GlcNAcylation of HTN-CK2α with 0tfOGT. More on the design: 0TPR(463-1046)-; expressed in transfected cells. In kind it is cell-based. The protocol:
FIGS. 18A and 18B: Immunoblotting analysis of the global O-GlcNAcylation inducing effect of truncated OGTAC-4 and OGTAC-1 on HTN-BRD4 and HTN-CK2α respectively. (A), O-GlcNAcylation inducing effect of OGTAC-4 is dependent on the expression of 0tfOGT. […] The quantification was conducted by immunoblot signal of probe treatment/control as the mean±s.e.m. of n=2 biologically independent experiments. TR, transfection reagent.
Target sequence in this assay (P68400 with tags, fused parts or gaps): as the sequence (P68400 with tags, fused parts or gaps) above
Target sequence in this assay (P62942+O15294 fused P62942:F37V partner): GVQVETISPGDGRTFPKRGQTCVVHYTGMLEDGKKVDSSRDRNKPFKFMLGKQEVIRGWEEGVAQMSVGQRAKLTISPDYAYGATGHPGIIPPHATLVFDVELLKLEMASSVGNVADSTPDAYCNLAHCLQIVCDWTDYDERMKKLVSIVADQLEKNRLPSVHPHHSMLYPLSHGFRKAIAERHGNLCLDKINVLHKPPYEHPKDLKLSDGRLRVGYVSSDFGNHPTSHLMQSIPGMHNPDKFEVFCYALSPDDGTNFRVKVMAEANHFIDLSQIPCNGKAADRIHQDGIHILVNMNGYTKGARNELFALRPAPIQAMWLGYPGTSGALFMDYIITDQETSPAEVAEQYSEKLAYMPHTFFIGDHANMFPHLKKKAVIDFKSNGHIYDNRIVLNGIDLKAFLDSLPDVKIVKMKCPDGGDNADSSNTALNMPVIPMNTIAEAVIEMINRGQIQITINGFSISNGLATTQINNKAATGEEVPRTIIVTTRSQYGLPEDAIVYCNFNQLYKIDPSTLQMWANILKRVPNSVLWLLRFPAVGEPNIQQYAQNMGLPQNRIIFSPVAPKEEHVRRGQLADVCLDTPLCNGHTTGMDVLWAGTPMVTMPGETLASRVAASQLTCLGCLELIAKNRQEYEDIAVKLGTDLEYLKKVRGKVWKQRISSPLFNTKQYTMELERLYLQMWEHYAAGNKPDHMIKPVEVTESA

In series [5] the test system is HTN-BRD4 covalently linked to OGTAC-1.

Sequence of FKBP12^F36V (P62942 whole entry F37V): as the sequence (P62942 whole entry F37V, stated change not applied, other chains not shown, the tested form may be a part) above

As a reminder, the Kd is the concentration at which binding is half-saturated. In the case of `CC[C@H](C(=O)N1CCCC[C@H]1C(=O)O[C@H](CCc1ccc(OC)c(OC)c1)c1cccc(OCC(=O)O)c1)c1cc(OC)c(OC)c(OC)c1` [AP1867, 2-[3-[(1R)-3-(3,4-dimethoxyphenyl)-1-[(2S)-1-[(2S)-2-(3,4,5-trimethoxyphenyl)butanoyl]piperidine-2-carbonyl]oxy-propyl]phenoxy]acetic acid], the “effect of competitor co-treatment on OGTAC-1 induced HTN-CK2α O-GlcNAcylation” value in series [1] is given as “abolished the O-GlcNAcylation inducing effects”. In series [2], the “time for O-GlcNAc level of BRD4 to return to baseline” value came out at 6 h and the “time to marked decrease in ternary complex formation” value was no more than 2 h. In series [3], the dissociation constant (Kd) is 1.8 nM.
Take `CCCCCCOCCOCCNC(=O)COc1cccc([C@@H](CCc2ccc(OC)c(OC)c2)OC(=O)[C@@H]2CCCCN2C(=O)[C@@H](CC)c2cc(OC)c(OC)c(OC)c2)c1` [OGTAC-1H, (R)-3-(3,4-dimethoxyphenyl)-1-(3-(2-((2-(2-(hexyloxy)ethoxy)ethyl)amino)-2-oxoethoxy)phenyl)propyl(S)-1-((S)-2-(3,4,5-trimethoxyphenyl)butanoyl)piperidine-2-carboxylate]: in series [4], the “recruitment of 0tfOGT to HTN-CK2α” value was “unable to recruit 0tfOGT to HTN-CK2α”.
For the compound `CN(C)c1ccc2c(-c3cc(C(=O)NCCOCCOCCCCCCCl)ccc3C(=O)[O-])c3ccc(=[N+](C)C)cc-3oc2c1` [rhodamine ligand, 4-((2-(2-((6-chlorohexyl)oxy)ethoxy)ethyl)carbamoyl)-2-(6-(dimethylamino)-3-(dimethyliminio)-3H-xanthen-9-yl)benzoate, reference compound], in series [1], the “effect of competitor co-treatment on OGTAC-1 induced HTN-CK2α O-GlcNAcylation” value is “abolished the O-GlcNAcylation inducing effects”.
For the compound FKBP12^F36V fused-OGT, in series [5], the “RL2 signal of BRD4 (O-GlcNAcylation of HTN-BRD4, IP-immunoblot) after 2 h of OGTAC-1 640 nM” value is 2.5-fold increase at 2 h and the “RL2 signal of BRD4 (O-GlcNAcylation of HTN-BRD4, IP-immunoblot) after 4 h of OGTAC-1 640 nM” value is listed as “further escalated to around 2.8-fold at 4 h”.

The values above are taken from US20250035641A1, “COMPOSITIONS AND METHODS RELATED TO PROTEIN LABELING” (The Chinese University of Hong Kong, priority 2023, published 2025).
